Experimental data as given in patent publication US7981903B2, “2-[2-{phenylamino}-1H-pyrrolo[2,3-D]pyrimidin-4-yl)amino] benzamide derivatives as IGF-1R inhibitors for the treatment of cancer” (GlaxoSmithKline LLC, priority 2007, dated 2011).

Assays:
[1] = molecular target: T1, NIH-3T3 cells overexpressing human IGF-1R (Homo sapiens, UniProt P08069); test: IGF-1R cellular autophosphorylation (DELFIA); format: cell-based
T1 construct: expressed in transfected cells; host or cells: NIH-3T3 (mouse fibroblasts)
In short: (§1)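 Receptor autophosphorylation measured by DELFIA, capturing IGF-1R or IRβ and detecting with europium anti-pTyr, reported as percent of IGF-1- or insulin-stimulated signal. Compounds (30 uM to 1.5 nM) added 2 h before ligand, then 15 min stimulation (IGF-1 30 ng/ml or insulin 3 ug/ml).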

[2] = molecular target: T2, NIH-3T3 cells overexpressing human IR (Homo sapiens, UniProt P06213); test: IR cellular autophosphorylation (DELFIA); format: cell-based; details: 2 h compound, insulin 3 ug/ml for 15 minutes, IC50 category
T2 construct: expressed in transfected cells; host or cells: NIH-3T3 (mouse fibroblasts)
In short: as §1

Colo205 = test: Inhibition of cell proliferation (CellTiter-Glo or InCell analyzer), Colo205; format: cell-based; details: Homo sapiens, COLO 205, 72 h / 3 days, values given as IC50 category
Procedure: (§2) Cell proliferation was measured by either CellTiter-Glo (measures cellular ATP level as a surrogate for total cell number) or by InCell analyzer (counts number of nuclei as a measure of cell number).
(§3) For CellTiter-Glo assay, exponentially growing cell lines of different tumor origins, cultured in appropriate media containing 10% fetal bovine serum at 37° C. in a 5% CO2 incubator, were plated at low density (less than 2000cells/well) in 96-well plates. Twenty four hours post-plating, cells were treated with different concentrations of test compounds ranging from 30 uM to 1.5 nM. Several wells were left untreated as a control. Seventy two hours post-treatment, cell numbers were determined using 50-100 ul per well of CellTiter-Glo (Promega #G7573). Plates were incubated at 37° C. for 30 minutes and the chemiluminescent signal was read on the Victor V or Envison 2100 reader.
(§4) For InCell Analyser assay, various cell lines of different tumor origins were grown to 70-80% confluency in appropriate culture media containing 10% fetal bovine serum at 37° C. in a 5% CO2 incubator. On day −1, cells were seeded at 2 densities in 384-well plates and incubated at 37° C. overnight. Stock compound plates were prepared in advance which contained dimethyl sulfoxide (DMSO) alone and a 9-point half-log decreasing dose range of the compound in DMSO. The compound plates were stored at −80° C. and each plate was only thawed once and used. On day 0, the main assay plates received compound or DMSO via a sonic delivery system (ECHO). The highest final concentration of compound of the dose range in the culture plates was 10 uM. These plates were cultured at 37° C. for 3 days. […] On day 3, the compound treated plates were stained and fixed to measure proliferation, apoptosis, and mitotic index using an InCelL1000 analyser. A nuclear stain was used to identify cells in the wells. By counting the number of nuclei, the proliferation index of compound treated groups were calculated as a percentage relative to the DMSO control, which was set to 100%. The IC50 values were calculated using model 205 in ExcelFit.
(§5) IC50 (nM) values for compounds of select examples were categorized by relative inhibition of cell proliferation.

human IGF1R (hIGF1R) = molecular target: T3, human IGF1R (hIGF1R) (Homo sapiens, UniProt P08069); test: TR-FRET kinase assay of purified hIGF1R; format: biochemical; details: activated hIGF1R 0.5 nM, 10 μM ATP, values given as pIC50 category, read-out: IGF-1R pIC50 (converted)
T3 construct: containing amino acid residues 957-1367 of human IGF1R; made in house; host or cells: Sf9 cells (baculovirus)

ALK = ALK (Homo sapiens, UniProt Q9UM73); test: ALK enzyme assay (HTRF); format: biochemical; details: 0.25 nM ALK, 15.0 μM ATP, values given as pIC50 category
In short: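 Isolated ALK phosphorylates a biotinylated tyrosine peptide, 120 min at 20° C; anti-phosphotyrosine Eu-cryptate/streptavidin-XL665 HTRF read after 60 min with EDTA-containing detection mix.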

human IR (hIR) = molecular target: T4, human IR (hIR) (Homo sapiens, UniProt P06213); test: TR-FRET kinase assay of purified hIR; format: biochemical; details: activated hIR 0.5 nM, 10 μM ATP, values given as pIC50 category
T4 construct: containing amino acid residues 979-1382 of human IR; made in house; host or cells: Sf9 cells (baculovirus), same process as hIGF1R

NCI-H929 = test: Inhibition of cell proliferation (CellTiter-Glo or InCell analyzer), NCI-H929; format: cell-based; details: Homo sapiens, 72 h / 3 days, values given as IC50 category
Procedure: as §2, §3, §4, §5

T2 sequence (P06213 28-1382): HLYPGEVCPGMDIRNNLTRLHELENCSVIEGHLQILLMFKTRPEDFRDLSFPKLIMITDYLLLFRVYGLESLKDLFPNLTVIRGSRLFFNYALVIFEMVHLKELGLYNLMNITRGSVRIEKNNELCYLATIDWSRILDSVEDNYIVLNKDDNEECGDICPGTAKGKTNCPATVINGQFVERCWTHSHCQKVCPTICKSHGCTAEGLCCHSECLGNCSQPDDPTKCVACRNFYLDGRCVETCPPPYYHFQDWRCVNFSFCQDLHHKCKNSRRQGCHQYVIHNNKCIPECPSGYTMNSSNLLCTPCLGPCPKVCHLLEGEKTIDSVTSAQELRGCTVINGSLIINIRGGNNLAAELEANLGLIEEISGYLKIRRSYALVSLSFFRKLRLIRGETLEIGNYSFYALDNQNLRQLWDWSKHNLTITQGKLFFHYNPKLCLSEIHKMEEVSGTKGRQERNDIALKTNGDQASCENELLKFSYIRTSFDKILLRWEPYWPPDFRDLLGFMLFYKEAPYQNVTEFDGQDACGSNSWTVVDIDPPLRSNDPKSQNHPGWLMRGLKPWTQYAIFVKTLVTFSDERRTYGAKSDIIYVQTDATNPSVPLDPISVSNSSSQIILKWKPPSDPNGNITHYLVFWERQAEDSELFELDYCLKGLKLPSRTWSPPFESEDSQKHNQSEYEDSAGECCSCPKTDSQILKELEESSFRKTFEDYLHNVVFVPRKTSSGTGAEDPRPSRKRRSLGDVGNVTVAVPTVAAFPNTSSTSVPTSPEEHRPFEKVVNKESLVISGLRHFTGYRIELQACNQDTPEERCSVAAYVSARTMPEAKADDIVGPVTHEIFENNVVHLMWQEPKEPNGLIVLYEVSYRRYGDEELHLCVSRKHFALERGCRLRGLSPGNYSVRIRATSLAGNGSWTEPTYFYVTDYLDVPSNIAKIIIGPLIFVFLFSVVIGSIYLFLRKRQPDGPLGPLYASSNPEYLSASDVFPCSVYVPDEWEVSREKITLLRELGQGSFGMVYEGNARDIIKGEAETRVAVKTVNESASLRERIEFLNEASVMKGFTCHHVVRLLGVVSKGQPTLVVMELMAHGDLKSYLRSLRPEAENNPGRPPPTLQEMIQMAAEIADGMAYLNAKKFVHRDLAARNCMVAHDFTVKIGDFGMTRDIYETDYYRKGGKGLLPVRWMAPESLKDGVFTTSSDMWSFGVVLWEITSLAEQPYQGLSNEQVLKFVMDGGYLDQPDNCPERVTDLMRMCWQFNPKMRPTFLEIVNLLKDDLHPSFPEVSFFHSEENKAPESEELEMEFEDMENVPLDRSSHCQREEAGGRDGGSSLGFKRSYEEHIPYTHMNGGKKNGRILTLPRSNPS
T3 sequence (P08069 957-1367): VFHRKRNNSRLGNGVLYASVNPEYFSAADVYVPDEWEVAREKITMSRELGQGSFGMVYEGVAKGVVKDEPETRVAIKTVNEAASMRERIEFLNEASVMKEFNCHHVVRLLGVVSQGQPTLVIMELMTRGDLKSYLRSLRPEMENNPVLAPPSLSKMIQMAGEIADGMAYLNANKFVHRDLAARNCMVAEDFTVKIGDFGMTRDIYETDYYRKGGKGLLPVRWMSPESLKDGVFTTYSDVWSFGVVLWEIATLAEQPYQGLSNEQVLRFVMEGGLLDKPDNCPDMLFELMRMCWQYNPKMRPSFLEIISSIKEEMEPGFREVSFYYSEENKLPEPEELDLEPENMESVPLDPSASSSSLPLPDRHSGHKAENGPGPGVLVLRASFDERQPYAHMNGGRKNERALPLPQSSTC
T1 sequence (P08069 31-1367): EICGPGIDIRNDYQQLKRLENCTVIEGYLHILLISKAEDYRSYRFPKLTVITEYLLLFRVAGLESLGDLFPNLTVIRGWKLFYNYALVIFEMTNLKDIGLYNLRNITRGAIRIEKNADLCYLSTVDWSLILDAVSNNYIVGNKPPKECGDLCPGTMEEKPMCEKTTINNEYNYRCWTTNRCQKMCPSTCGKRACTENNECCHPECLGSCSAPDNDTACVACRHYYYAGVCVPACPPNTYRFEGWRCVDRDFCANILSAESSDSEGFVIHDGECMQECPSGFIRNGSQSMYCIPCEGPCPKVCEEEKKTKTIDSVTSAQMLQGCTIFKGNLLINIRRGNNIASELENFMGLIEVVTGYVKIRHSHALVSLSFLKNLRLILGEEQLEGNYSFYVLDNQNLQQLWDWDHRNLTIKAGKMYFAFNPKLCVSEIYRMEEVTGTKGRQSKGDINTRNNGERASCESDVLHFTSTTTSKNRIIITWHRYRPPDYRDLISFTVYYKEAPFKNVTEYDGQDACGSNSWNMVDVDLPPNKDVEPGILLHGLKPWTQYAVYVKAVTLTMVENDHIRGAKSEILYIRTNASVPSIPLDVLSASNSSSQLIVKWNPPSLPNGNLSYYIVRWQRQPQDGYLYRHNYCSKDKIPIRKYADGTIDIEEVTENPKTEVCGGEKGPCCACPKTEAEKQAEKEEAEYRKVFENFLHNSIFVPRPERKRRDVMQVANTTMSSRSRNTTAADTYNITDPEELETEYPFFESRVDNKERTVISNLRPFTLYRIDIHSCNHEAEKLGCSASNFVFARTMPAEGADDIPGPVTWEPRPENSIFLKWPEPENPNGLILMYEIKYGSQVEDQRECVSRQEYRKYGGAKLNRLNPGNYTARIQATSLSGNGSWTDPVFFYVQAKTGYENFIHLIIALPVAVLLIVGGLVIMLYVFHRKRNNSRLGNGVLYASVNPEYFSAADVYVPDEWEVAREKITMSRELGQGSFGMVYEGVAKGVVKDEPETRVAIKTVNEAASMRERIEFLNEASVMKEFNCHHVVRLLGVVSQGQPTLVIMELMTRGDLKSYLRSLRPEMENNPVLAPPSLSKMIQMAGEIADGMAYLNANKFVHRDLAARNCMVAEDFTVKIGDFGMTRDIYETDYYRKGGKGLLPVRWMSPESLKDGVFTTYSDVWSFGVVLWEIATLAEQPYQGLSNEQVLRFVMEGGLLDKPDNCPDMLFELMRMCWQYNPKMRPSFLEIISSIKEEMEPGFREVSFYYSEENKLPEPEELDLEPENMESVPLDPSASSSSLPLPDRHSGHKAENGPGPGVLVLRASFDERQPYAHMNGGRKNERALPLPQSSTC
T4 sequence (P06213 979-1382): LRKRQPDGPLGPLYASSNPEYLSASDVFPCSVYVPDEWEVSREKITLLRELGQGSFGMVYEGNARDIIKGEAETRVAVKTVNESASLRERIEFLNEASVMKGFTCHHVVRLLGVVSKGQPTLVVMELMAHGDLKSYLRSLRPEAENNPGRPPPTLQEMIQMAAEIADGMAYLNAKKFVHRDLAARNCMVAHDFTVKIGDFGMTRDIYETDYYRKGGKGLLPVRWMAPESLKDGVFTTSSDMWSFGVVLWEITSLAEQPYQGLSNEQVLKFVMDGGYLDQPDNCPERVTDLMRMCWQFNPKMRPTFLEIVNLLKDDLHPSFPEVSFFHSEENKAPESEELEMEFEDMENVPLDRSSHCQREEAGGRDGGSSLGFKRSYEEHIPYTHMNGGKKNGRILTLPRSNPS
Chain of ALK (Q9UM73 19-1620): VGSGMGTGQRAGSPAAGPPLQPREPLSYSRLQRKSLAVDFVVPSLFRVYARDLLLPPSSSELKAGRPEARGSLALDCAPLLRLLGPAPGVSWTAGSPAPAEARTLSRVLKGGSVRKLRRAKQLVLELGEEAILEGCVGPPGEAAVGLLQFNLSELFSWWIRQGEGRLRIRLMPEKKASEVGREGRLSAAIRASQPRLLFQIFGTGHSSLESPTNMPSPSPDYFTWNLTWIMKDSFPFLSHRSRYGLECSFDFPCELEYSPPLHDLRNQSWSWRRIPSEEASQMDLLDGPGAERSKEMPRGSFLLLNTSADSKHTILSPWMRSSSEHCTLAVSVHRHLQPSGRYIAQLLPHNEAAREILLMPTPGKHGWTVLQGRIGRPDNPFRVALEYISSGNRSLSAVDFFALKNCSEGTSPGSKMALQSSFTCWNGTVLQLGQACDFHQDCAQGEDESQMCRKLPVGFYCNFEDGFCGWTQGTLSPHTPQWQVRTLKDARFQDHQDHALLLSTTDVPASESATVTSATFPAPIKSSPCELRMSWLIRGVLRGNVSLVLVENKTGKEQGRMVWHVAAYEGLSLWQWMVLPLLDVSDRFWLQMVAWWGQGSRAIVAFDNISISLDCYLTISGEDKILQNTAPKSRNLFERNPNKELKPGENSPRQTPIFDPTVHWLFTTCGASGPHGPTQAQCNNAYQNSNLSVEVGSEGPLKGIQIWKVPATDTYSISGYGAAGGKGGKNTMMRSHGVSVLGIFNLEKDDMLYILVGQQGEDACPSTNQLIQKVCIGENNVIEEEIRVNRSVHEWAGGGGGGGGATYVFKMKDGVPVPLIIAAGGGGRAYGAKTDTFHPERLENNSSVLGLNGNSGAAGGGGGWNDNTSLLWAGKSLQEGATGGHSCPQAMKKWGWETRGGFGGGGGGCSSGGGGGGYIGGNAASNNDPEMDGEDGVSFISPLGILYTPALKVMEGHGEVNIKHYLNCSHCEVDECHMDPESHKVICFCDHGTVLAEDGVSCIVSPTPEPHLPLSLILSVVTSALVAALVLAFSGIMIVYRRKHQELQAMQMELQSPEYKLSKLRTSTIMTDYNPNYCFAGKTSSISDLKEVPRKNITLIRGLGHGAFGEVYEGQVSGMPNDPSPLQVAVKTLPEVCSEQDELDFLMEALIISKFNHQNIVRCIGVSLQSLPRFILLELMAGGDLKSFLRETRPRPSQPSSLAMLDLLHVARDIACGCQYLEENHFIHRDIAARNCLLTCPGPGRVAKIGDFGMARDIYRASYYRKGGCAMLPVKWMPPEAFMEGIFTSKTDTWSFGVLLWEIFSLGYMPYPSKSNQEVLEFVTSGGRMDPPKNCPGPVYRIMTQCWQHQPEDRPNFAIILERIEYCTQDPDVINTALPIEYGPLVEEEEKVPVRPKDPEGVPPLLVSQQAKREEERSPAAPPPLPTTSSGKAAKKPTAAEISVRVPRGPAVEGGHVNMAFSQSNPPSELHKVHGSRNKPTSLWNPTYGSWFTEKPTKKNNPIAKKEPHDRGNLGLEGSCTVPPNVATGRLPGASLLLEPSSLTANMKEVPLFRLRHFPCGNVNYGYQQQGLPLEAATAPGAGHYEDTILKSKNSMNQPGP

SMILES | IC50 [1] | IC50 [2] | IC50 (Colo205) | IC50 (human IGF1R (hIGF1R)) | IC50 (ALK) | IC50 (human IR (hIR)) | IC50 (NCI-H929)
CNC(=O)c1cc(F)ccc1Nc1nc(Nc2ccc(N3CCN(C(C)C)CC3)cc2OC)nc2[nH]ccc12 [Example 65, 5-fluoro-N-methyl-2-[(2-{[4-[4-(1-methylethyl)-1-piperazinyl]-2-(methyloxy)phenyl]amino}-1H-pyrrolo[2,3-d]pyrimidin-4-yl)amino]benzamide] | 100 to 500 nM | 100 to 500 nM | 250 to 1000 nM | 1.26 to 3.98 nM | 1.26 to 3.98 nM |  | 
COc1cc(N2CCN(C(C)C)CC2)ccc1Nc1nc(Nc2ccc(F)cc2C(=O)NCCO)c2cc[nH]c2n1 [Example 66, 5-fluoro-N-(2-hydroxyethyl)-2-[(2-{[4-[4-(1-methylethyl)-1-piperazinyl]-2-(methyloxy)phenyl]amino}-1H-pyrrolo[2,3-d]pyrimidin-4-yl)amino]benzamide] | > 500 nM | > 500 nM | < 250 nM | 5.01 to 200 nM | 1.26 to 3.98 nM |  | 
CCc1cc(N2CCN(C(C)C)CC2)ccc1Nc1nc(Nc2cc(F)ccc2C(N)=O)c2cc[nH]c2n1 [Example 69, 2-{[2-({2-ethyl-4-[4-(1-methylethyl)-1-piperazinyl]phenyl}amino)-1H-pyrrolo[2,3-d]pyrimidin-4-yl]amino}-4-fluorobenzamide] | 100 to 500 nM | 100 to 500 nM | 250 to 1000 nM | 1.26 to 3.98 nM |  | 1.26 to 3.98 nM | 
COc1cc(N2CCOC[C@@H]2C)ccc1Nc1nc(Nc2cc(F)cc(F)c2C(N)=O)c2cc[nH]c2n1 [Example 90, 2,4-difluoro-6-[(2-{[4-[(3S)-3-methyl-4-morpholinyl]-2-(methyloxy)phenyl]amino}-1H-pyrrolo[2,3-d]pyrimidin-4-yl)amino]benzamide] | < 100 nM | < 100 nM | 250 to 1000 nM | 1.26 to 3.98 nM |  | 1.26 to 3.98 nM | 
CNC(=O)c1c(F)cccc1Nc1nc(Nc2cc3c(cc2OC)CCN3C(=O)CN(C)C)nc2[nH]ccc12 [Example 116, 2-[(2-{[1-(N,N-dimethylglycyl)-5-(methyloxy)-2,3-dihydro-1H-indol-6-yl]amino}-1H-pyrrolo[2,3-d]pyrimidin-4-yl)amino]-6-fluoro-N-methylbenzamide] |  |  | 250 to 1000 nM |  |  |  | < 250 nM
COc1cc2c(cc1Nc1nc(Nc3cc(F)cc(F)c3C(N)=O)c3cc[nH]c3n1)N(C(=O)[C@@H]1CCCN1C)CC2 [Example 148, 2,4-difluoro-6-[(2-{[5-(methyloxy)-1-(1-methyl-L-prolyl)-2,3-dihydro-1H-indol-6-yl]amino}-1H-pyrrolo[2,3-d]pyrimidin-4-yl)amino]benzamide] |  |  | 250 to 1000 nM | 1.26 to 3.98 nM | 5.01 to 200 nM | 1.26 to 3.98 nM | 250 to 1000 nM

Further lines, results first:

IC50 [1] | IC50 [2] | IC50 (Colo205) | IC50 (human IGF1R (hIGF1R)) | IC50 (ALK) | IC50 (human IR (hIR)) | IC50 (NCI-H929) | SMILES
 |  | < 250 nM | 1.26 to 3.98 nM | 1.26 to 3.98 nM | 1.26 to 3.98 nM | < 250 nM | COc1cc2c(cc1Nc1nc(Nc3ccc(F)c(F)c3C(N)=O)c3cc[nH]c3n1)N(C(=O)CN(C)C)CC2 [Example 159, 6-[(2-{[1-(N,N-dimethylglycyl)-5-(methyloxy)-2,3-dihydro-1H-indol-6-yl]amino}-1H-pyrrolo[2,3-d]pyrimidin-4-yl)amino]-2,3-difluorobenzamide]
 |  | 250 to 1000 nM | 1.26 to 3.98 nM | 1.26 to 3.98 nM | 1.26 to 3.98 nM | < 250 nM | CNC(=O)c1c(Nc2nc(Nc3cc4c(cc3OC)CCN4C(=O)CN(C)C)nc3[nH]ccc23)ccc(F)c1F [Example 160, 6-[(2-{[1-(N,N-dimethylglycyl)-5-(methyloxy)-2,3-dihydro-1H-indol-6-yl]amino}-1H-pyrrolo[2,3-d]pyrimidin-4-yl)amino]-2,3-difluoro-N-methylbenzamide]
 |  | > 1000 nM | 5.01 to 200 nM | 1.26 to 3.98 nM | 5.01 to 158 nM | 250 to 1000 nM | COc1cc2c(cc1Nc1nc(Nc3ccc(F)c(F)c3C(=O)NC(C)C)c3cc[nH]c3n1)N(C(=O)CN(C)C)CCC2 [Example 164, 6-[(2-{[1-(N,N-dimethylglycyl)-6-(methyloxy)-1,2,3,4-tetrahydro-7-quinolinyl]amino}-1H-pyrrolo[2,3-d]pyrimidin-4-yl)amino]-2,3-difluoro-N-(1-methylethyl)benzamide]
 |  | < 250 nM |  | 0.251 to 1 nM |  | < 250 nM | COc1cc2c(cc1Nc1nc(Nc3cc(Cl)cc(F)c3C(N)=O)c3cc[nH]c3n1)N(C(=O)CN(C)C)CCC2 [Example 171, 4-chloro-2-[(2-{[1-(N,N-dimethylglycyl)-6-(methyloxy)-1,2,3,4-tetrahydro-7-quinolinyl]amino}-1H-pyrrolo[2,3-d]pyrimidin-4-yl)amino]-6-fluorobenzamide]
 |  | 250 to 1000 nM |  | 1.26 to 3.98 nM |  | < 250 nM | CNC(=O)c1c(F)cc(Cl)cc1Nc1nc(Nc2cc3c(cc2OC)CCCN3C(=O)CN(C)C)nc2[nH]ccc12 [Example 172, 4-chloro-2-[(2-{[1-(N,N-dimethylglycyl)-6-(methyloxy)-1,2,3,4-tetrahydro-7-quinolinyl]amino}-1H-pyrrolo[2,3-d]pyrimidin-4-yl)amino]-6-fluoro-N-methylbenzamide]
 |  | < 250 nM | 1.26 to 3.98 nM | 0.251 to 1 nM | 1.26 to 3.98 nM | < 250 nM | CNC(=O)c1c(F)cccc1Nc1nc(Nc2cc3c(cc2OC)CCN3C(=O)[C@H](C)N(C)C)nc2[nH]ccc12 [Example 194, 2-[(2-{[1-(N,N-dimethyl-L-alanyl)-5-(methyloxy)-2,3-dihydro-1H-indol-6-yl]amino}-1H-pyrrolo[2,3-d]pyrimidin-4-yl)amino]-6-fluoro-N-methylbenzamide]
 |  | 250 to 1000 nM | 0.251 to 1 nM |  | 0.251 to 1 nM | < 250 nM | CNC(=O)c1c(F)cccc1Nc1nc(Nc2cc3c(cc2OC)C(C)(C)CCN3C(=O)CN(C)C)nc2[nH]ccc12 [Example 226, 2-[(2-{[1-(N,N-dimethylglycyl)-4,4-dimethyl-6-(methyloxy)-1,2,3,4-tetrahydro-7-quinolinyl]amino}-1H-pyrrolo[2,3-d]pyrimidin-4-yl)amino]-6-fluoro-N-methylbenzamide]
 |  | > 1000 nM | 5.01 to 200 nM |  |  | 250 to 1000 nM | CNC(=O)c1c(F)cccc1Nc1nc(Nc2cc3c(cc2C)CCCN3C(=O)CN(C)C)nc2[nH]ccc12 [Example 247, 2-[(2-{[1-(N,N-dimethylglycyl)-6-methyl-1,2,3,4-tetrahydro-7-quinolinyl]amino}-1H-pyrrolo[2,3-d]pyrimidin-4-yl)amino]-6-fluoro-N-methylbenzamide]
< 100 nM | 100 to 500 nM |  | 0.251 to 1 nM | 0.251 to 1 nM | 0.251 to 1 nM |  | CNC(=O)c1c(F)cccc1Nc1nc(Nc2cc(NC(=O)CN(C)C)c(C)cc2OC)nc2[nH]ccc12 [Example 256, 2-[(2-{[5-[(N,N-dimethylglycyl)amino]-4-methyl-2-(methyloxy)phenyl]amino}-1H-pyrrolo[2,3-d]pyrimidin-4-yl)amino]-6-fluoro-N-methylbenzamide]
< 100 nM | < 100 nM |  | 0.251 to 1 nM | 0.251 to 1 nM | 0.251 to 1 nM |  | COc1cc(C)c(NC(=O)CN(C)C)cc1Nc1nc(Nc2cccc(F)c2C(N)=O)c2cc[nH]c2n1 [Example 257, 2-[(2-{[5-[(N,N-dimethylglycyl)amino]-4-methyl-2-(methyloxy)phenyl]amino}-1H-pyrrolo[2,3-d]pyrimidin-4-yl)amino]-6-fluorobenzamide]
